Measurements: US4082735A, “Novel immunological adjuvant compounds and methods of preparation thereof” (Syntex (U.S.A.) Inc., priority 1976, dated 1978)

Columns and labels:
[1] = system: guinea pigs; experiment: Antibody titre (antibovine serum albumin or antiovalbumin antibodies) by passive hemagglutination or Farr radioimmune assay; assay type: in vivo; conditions: relative to FIA = 1; dose 50 μg per guinea pig, subcutaneous in FIA emulsion; sera day 42
Method: (§1) The antigen mixture used consists of 20 μg. of arsanilic tyrosine and 100 μg. of protein [either bovine serum albumin (BSA) or ovalbumin]. The antigen mixture and the compounds to be tested, at the dose levels per guinea pig shown in the Table below, are dissolved in saline and emulsified with an equal volume of Freund's Incomplete Adjuvant (FIA). Groups of ten guinea pigs are used for each test compound and each guinea pig is injected with 0.1 ml. of the above emulsion, subcutaneously, in the nuchal region. Control groups are given the antigen mixture alone emulsified with FIA.
On day 42 all animals are bled by cardiac puncture and the sera assayed for antibovine serum albumin or antiovalbumin antibodies by the passive hemagglutination technique or by radiommune assay using the Farr techbique (P. Minden and R.S. Farr in "Handbook of Experimental Immunology", edited by D.M. Weir, Chapter 15, Volume 1, Blackwell Scientific Publications, Oxford) using 125 iodine labeled bovine serum albumin. Average potencies of these assays are presented in Column 2 of the Table below relative to FIA having the value of one.

[2] = system: guinea pigs; experiment: Delayed hypersensitivity to arsanilic tyrosine, skin test after immunisation with antigen mixture plus test compound in FIA; assay type: in vivo; conditions: relative to FIA = 1; dose 50 μg per guinea pig, subcutaneous in FIA emulsion; skin test day 14, read at 24 hours
Method: as §1
After 14 days, all animals are skin tested using 25 μg arsanilic tyrosine conjugated to either BSA or ovalbumin (BSA is used in this test when ovalbumin is present in the antigen mixture and vice versa) which is given in 0.1 ml saline intradermally in the flanks of the animals. […] Thus, the procedure is as follows: skin tests with a high degree of infiltration are scored as ++ and assigned the number 3; those with a lesser degree are scored as + and given the number 2, whereas skin reactions with no infiltration are scored as zero and assigned the number 1. […]

[3] = system: dogs; experiment: Side effects in dogs after inoculation; assay type: in vivo, dog; conditions: 4 dogs
Description: A. 48 Dogs were divided into groups and inoculated with the amounts of compound (per kilogram of body weight) as shown in the following Table: […]

[4] = system: cats; experiment: Side effects in cats after inoculation; assay type: in vivo, cat; conditions: 1500 μg per kilogram
Description: B. Seven cats were divided into groups and inoculated with the amounts of compounds (per kilogram of body weight) as shown in the following Table: […]

| Compound | Average Potency, Antibody Titre [1] | Average Potency, Delayed Hypersensitivity to Arsanilic Tyrosine [2] | dogs showing severe depression, excessive salivation and vomiting ([3]; 240 μg per kilogram of body weight) | dogs showing severe depression, excessive salivation and vomiting ([3]; 600 μg per kilogram of body weight) | dogs showing severe depression, excessive salivation and vomiting ([3]; 1500 μg per kilogram of body weight) | condition at 24 hours post-inoculation ([4]; 3 cats) | food intake ([4]; 3 cats) | general condition following inoculation ([4]; 3 cats) | diarrhea ([4]; 3 cats, 2-5 hours post-inoculation) | vomiting, number of times ([4]; 3 cats, over a period of 2-5 hours post-inoculation) | rectal temperature, peak ([4]; seven hours post-inoculation) |
| --- | --- | --- | --- | --- | --- | --- | --- | --- | --- | --- | --- |
| 2-acetamido-2-deoxy-D-glucos-3-O-yl-acetyl-L-prolyl-D-isoglutamine | 8.0 | 5.4 | – | – | – | – | – | – | – | – | – |
| CC(=O)N[C@H]1C(O)O[C@H](CO)[C@@H](O)[C@@H]1OC(C)C(=O)N[C@H](C)C(=O)N[C@H](CCC(=O)O)C(N)=O (stereo partly drawn) [2-(2-acetamido-2-deoxy-D-glucos-3-0-yl)-D-propionyl-L-alanyl-D-isoglutamine] | 3.7 | 3.3 | two of the dogs | All of the dogs | All of the dogs | all animals had returned to normal | Food was refused | became depressed and unkempt | All animals had diarrhea | 4-6 times | 104 ° F |
